In brackets after ≈: the same amount, converted by molar mass.
Experiments:
P. aeruginosa PBP3 = target: T1, P. aeruginosa PBP3 (Pseudomonas aeruginosa, UniProt G3XD46); assay: Bocillin-FL fluorescence polarization competition binding assay, P. aeruginosa PBP3; conditions: fluorescence polarization competition binding assay using Bocillin-FL
T1 construct: made in house
Summary of the method: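 Inhibitor competition with Bocillin-FL for P. aeruginosa PBP3 was followed by fluorescence polarization on a Cytation3 (BioTek) reader, using g-factor 0.96, 490 nm excitation and 520 nm emission. The enzyme was at 0.75 μM and the probe at 0.1 μM in Hepes/NaCl/glycerol buffer, 80 μl per well. FP was recorded immediately after probe addition for up to 60 minutes. Potency was expressed as EC50, the concentration that reduces bound probe by 50%.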

N. gonorrhoeae WHO Q = assay: Liquid broth MIC in Fastidious broth; type: cell-based; conditions: Neisseria gonorrhoeae, read-out: Minimum Inhibitory Concentration, N. gonorrhoeae WHO Q
Summary of the method: (§1)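 Mosaic-PBP2 strains grown 24 h on chocolate agar (36 °C, 5% CO2), then direct-suspended in saline and OD600-adjusted. Twofold compound dilutions in Fastidious broth inoculated at 5×10^5 CFU/mL and incubated ~24 h at 36 °C, 5% CO2. MIC read visually as lowest concentration with <10% growth versus full-growth wells.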

N. gonorrhoeae WHO Z = assay: Liquid broth MIC in Fastidious broth; type: cell-based; conditions: Neisseria gonorrhoeae, read-out: Minimum Inhibitory Concentration, N. gonorrhoeae WHO Z
Summary of the method: as §1

T1 sequence (G3XD46 whole entry): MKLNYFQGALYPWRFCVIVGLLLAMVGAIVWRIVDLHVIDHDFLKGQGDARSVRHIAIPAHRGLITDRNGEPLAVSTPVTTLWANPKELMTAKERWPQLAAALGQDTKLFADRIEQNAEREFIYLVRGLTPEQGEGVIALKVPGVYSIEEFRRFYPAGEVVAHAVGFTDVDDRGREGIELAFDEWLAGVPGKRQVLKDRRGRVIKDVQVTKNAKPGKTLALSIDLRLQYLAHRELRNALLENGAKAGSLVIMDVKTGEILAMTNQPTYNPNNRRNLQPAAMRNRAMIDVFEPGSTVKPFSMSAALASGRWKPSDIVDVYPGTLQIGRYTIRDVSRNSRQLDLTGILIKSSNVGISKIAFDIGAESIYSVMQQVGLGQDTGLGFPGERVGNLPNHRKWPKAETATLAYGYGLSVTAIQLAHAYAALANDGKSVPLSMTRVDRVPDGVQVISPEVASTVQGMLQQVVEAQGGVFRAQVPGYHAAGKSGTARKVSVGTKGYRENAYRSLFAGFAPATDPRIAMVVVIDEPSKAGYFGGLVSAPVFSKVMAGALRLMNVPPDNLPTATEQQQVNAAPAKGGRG

Row | Structure (SMILES) | P. aeruginosa PBP3 Potency (P. aeruginosa PBP3) | MIC (N. gonorrhoeae WHO Q) [µg/mL] | MIC (N. gonorrhoeae WHO Z) [µg/mL]
1 | CCN1CCN(C(=O)NC(C(=O)N[C@H]2Cc3cccc(C(=O)O)c3OB2O)c2cc(O)cc(O)c2)C(=O)C1=O (mixture of isomers) [Example 79, (3R)-3-(2-(3,5-dihydroxyphenyl)-2-(4-ethyl-2,3-dioxopiperazine-1-carboxamido)acetamido)-2-hydroxy-3,4-dihydro-2H-benzo[e][1,2]oxaborinine-8-carboxylic acid] | D (D represents a potency <10 μM) | 4 to 8 | 4 to 8
2 | NCCCN1CCN(C(=O)N[C@H](C(=O)N[C@H]2Cc3ccc(F)c(C(=O)O)c3OB2O)c2ccc(O)c(O)c2Cl)C(=O)C1=O (single isomer, unassigned) [Example 28] | B (B represents a potency between 30 μM and 500 μM inclusive) |  | 
3 | O=C(NC(C(=O)N[C@H]1Cc2ccc(F)c(C(=O)O)c2OB1O)c1ncc(O)cc1F)c1c(F)cc(O)c(O)c1Cl (stereo partly drawn) [Example 10, (3R)-3-(2-(2-chloro-6-fluoro-3,4-dihydroxybenzamido)-2-(3-fluoro-5-hydroxypyridin-2-yl)acetamido)-7-fluoro-2-hydroxy-3,4-dihydro-2H-benzo[e][1,2]oxaborinine-8-carboxylic acid] | D (D represents a potency <10 μM) |  | 
4 | CCN1CCN(C(=O)NC(C(=O)N[C@H]2Cc3cccc(C(=O)O)c3OB2O)c2ccc(O)c(NC(C)=O)c2)C(=O)C1=O (stereo partly drawn) [Example 17, (3R)-3-(2-(3-acetamido-4-hydroxyphenyl)-2-(4-ethyl-2,3-dioxopiperazine-1-carboxamido)acetamido)-2-hydroxy-3,4-dihydro-2H-benzo[e][1,2]oxaborinine-8-carboxylic acid] | D (D represents a potency <10 μM) |  | 
5 | CCN1CCN(C(=O)NC(C(=O)N[C@H]2Cc3ccc(F)c(C(=O)O)c3OB2O)c2nc(N)sc2F)C(=O)C1=O (stereo partly drawn) [Example 18, (3R)-3-(2-(2-amino-5-fluorothiazol-4-yl)-2-(4-ethyl-2,3-dioxopiperazine-1-carboxamido)acetamido)-7-fluoro-2-hydroxy-3,4-dihydro-2H-benzo[e][1,2]oxaborinine-8-carboxylic acid] | D (D represents a potency <10 μM) |  | 4 to 8 (≈ 7.06 to 14.1 µM)
6 | CCN1CCN(C(=O)N[C@H](C(=O)N[C@H]2Cc3cccc(C(=O)O)c3OB2O)c2nc(Cl)c(C(=O)O)cc2F)C(=O)C1=O [Example 19, 6-((S)-2-(((R)-8-carboxy-2-hydroxy-3,4-dihydro-2H-benzo[e][1,2]oxaborinin-3-yl)amino)-1-(4-ethyl-2,3-dioxopiperazine-1-carboxamido)-2-oxoethyl)-2-chloro-5-fluoronicotinic acid] | D (D represents a potency <10 μM) |  | 
7 | CCN1CCN(C(=O)NC(C(=O)N[C@H]2Cc3cccc(C(=O)O)c3OB2O)c2ncc(C(=O)O)cc2F)C(=O)C1=O (stereo partly drawn) [Example 20, 6-(2-(((R)-8-carboxy-2-hydroxy-3,4-dihydro-2H-benzo[e][1,2]oxaborinin-3-yl)amino)-1-(4-ethyl-2,3-dioxopiperazine-1-carboxamido)-2-oxoethyl)-5-fluoronicotinic acid] | D (D represents a potency <10 μM) |  | 
8 | CCN1CCN(C(=O)NC(C(=O)N[C@H]2Cc3cccc(C(=O)O)c3OB2O)c2ccc(O)c(N(S(C)(=O)=O)S(C)(=O)=O)c2)C(=O)C1=O (stereo partly drawn) [Example 21, (3R)-3-(2-(4-ethyl-2,3-dioxopiperazine-1-carboxamido)-2-(4-hydroxy-3-(N-(methylsulfonyl)methylsulfonamido)phenyl)acetamido)-2-hydroxy-3,4-dihydro-2H-benzo[e][1,2]oxaborinine-8-carboxylic acid] | D (D represents a potency <10 μM) |  | 
9 | CCN1CCN(C(=O)NC(C(=O)N[C@H]2Cc3cccc(C(=O)O)c3OB2O)c2ccc(O)c(NS(C)(=O)=O)c2)C(=O)C1=O (stereo partly drawn) [Example 22, (3R)-3-(2-(4-ethyl-2,3-dioxopiperazine-1-carboxamido)-2-(4-hydroxy-3-(methylsulfonamido)phenyl)acetamido)-2-hydroxy-3,4-dihydro-2H-benzo[e][1,2]oxaborinine-8-carboxylic acid] | D (D represents a potency <10 μM) |  | 
10 | NCCN1CCN(C(=O)NC(C(=O)N[C@H]2Cc3ccc(F)c(C(=O)O)c3OB2O)c2nc(N)sc2F)C(=O)C1=O (stereo partly drawn) [Example 24, (3R)-3-(2-(2-amino-5-fluorothiazol-4-yl)-2-(4-(2-aminoethyl)-2,3-dioxopiperazine-1-carboxamido)acetamido)-7-fluoro-2-hydroxy-3,4-dihydro-2H-benzo[e][1,2]oxaborinine-8-carboxylic acid] | B (B represents a potency between 30 μM and 500 μM inclusive) |  | 
11 | CCN1CCN(C(=O)NC(C(=O)N[C@H]2Cc3cccc(C(=O)O)c3OB2O)c2ccc(O)c(N)c2)C(=O)C1=O (stereo partly drawn) [Example 29, (3R)-3-(2-(3-amino-4-hydroxyphenyl)-2-(4-ethyl-2,3-dioxopiperazine-1-carboxamido)acetamido)-2-hydroxy-3,4-dihydro-2H-benzo[e][1,2]oxaborinine-8-carboxylic acid] | D (D represents a potency <10 μM) |  | 
12 | CCN1CCN(C(=O)NC(C(=O)N[C@H]2Cc3cccc(C(=O)O)c3OB2O)c2ccc(O)c(NS(N)(=O)=O)c2)C(=O)C1=O (stereo partly drawn) [Example 30, (3R)-3-(2-(4-ethyl-2,3-dioxopiperazine-1-carboxamido)-2-(4-hydroxy-3-(sulfamoylamino)phenyl)acetamido)-2-hydroxy-3,4-dihydro-2H-benzo[e][1,2]oxaborinine-8-carboxylic acid] | D (D represents a potency <10 μM) |  | 
13 | N[C@@H](C(=O)N[C@H]1Cc2ccc(F)c(C(=O)O)c2OB1O)c1ccc(OS(=O)(=O)F)cc1 [Example 32, (R)-3-((R)-2-amino-2-(4-((fluorosulfonyl)oxy)phenyl)acetamido)-7-fluoro-2-hydroxy-3,4-dihydro-2H-benzo[e][1,2]oxaborinine-8-carboxylic acid] | A (A represents a potency of >500 μM) |  | 
14 | NS(=O)(=O)NC(C(=O)N[C@H]1Cc2ccc(F)c(C(=O)O)c2OB1O)c1ncc(O)cc1F (stereo partly drawn) [Example 43, (3R)-7-fluoro-3-(2-(3-fluoro-5-hydroxypyridin-2-yl)-2-(sulfamoylamino)acetamido)-2-hydroxy-3,4-dihydro-2H-benzo[e][1,2]oxaborinine-8-carboxylic acid] | C (C represents a potency between 10 and 30 μM) |  | 
15 | NS(=O)(=O)NC(C(=O)N[C@H]1Cc2cccc(C(=O)O)c2OB1O)c1ccc(C(=O)O)c(F)c1 (stereo partly drawn) [Example 44, (3R)-3-(2-(4-carboxy-3-fluorophenyl)-2-(sulfamoylamino)acetamido)-2-hydroxy-3,4-dihydro-2H-benzo[e][1,2]oxaborinine-8-carboxylic acid] | C (C represents a potency between 10 and 30 μM) |  | 
16 | O=C(Nc1ccccc1)NC(C(=O)N[C@H]1Cc2ccc(F)c(C(=O)O)c2OB1O)c1ncc(O)cc1F (stereo partly drawn) [Example 49, (3R)-7-fluoro-3-(2-(3-fluoro-5-hydroxypyridin-2-yl)-2-(3-phenylureido)acetamido)-2-hydroxy-3,4-dihydro-2H-benzo[e][1,2]oxaborinine-8-carboxylic acid] | D (D represents a potency <10 μM) |  | 
17 | CCN1CCN(C(=O)NC(C(=O)N[C@H]2Cc3cccc(C(=O)O)c3OB2O)c2ccc(N)c(F)c2)C(=O)C1=O (stereo partly drawn) [Example 50, (3R)-3-(2-(4-amino-3-fluorophenyl)-2-(4-ethyl-2,3-dioxopiperazine-1-carboxamido)acetamido)-2-hydroxy-3,4-dihydro-2H-benzo[e][1,2]oxaborinine-8-carboxylic acid] | D (D represents a potency <10 μM) |  | 
18 | N=C(N)NCCN1CCN(C(=O)NC(C(=O)N[C@H]2Cc3ccc(F)c(C(=O)O)c3OB2O)c2ncc(O)cc2F)C(=O)C1=O (stereo partly drawn) [Example 51, (3R)-7-fluoro-3-(2-(3-fluoro-5-hydroxypyridin-2-yl)-2-(4-(2-guanidinoethyl)-2,3-dioxopiperazine-1-carboxamido)acetamido)-2-hydroxy-3,4-dihydro-2H-benzo[e][1,2]oxaborinine-8-carboxylic acid] | D (D represents a potency <10 μM) |  | 
19 | N=C(N)NC(C(=O)N[C@H]1Cc2ccc(F)c(C(=O)O)c2OB1O)c1ncc(O)cc1F (stereo partly drawn) [Example 52, (3R)-7-fluoro-3-(2-(3-fluoro-5-hydroxypyridin-2-yl)-2-guanidinoacetamido)-2-hydroxy-3,4-dihydro-2H-benzo[e][1,2]oxaborinine-8-carboxylic acid] | A (A represents a potency of >500 μM) |  | 
20 | CCN1CCN(C(=O)NC(C(=O)N[C@H]2Cc3ccc(O[C@@H]4CN[C@H](C(=O)N(C)C)C4)c(C(=O)O)c3OB2O)c2ccccc2)C(=O)C1=O (stereo partly drawn) [Example 59, (3R)-7-(((3S,5S)-5-(dimethylcarbamoyl)pyrrolidin-3-yl)oxy)-3-(2-(4-ethyl-2,3-dioxopiperazine-1-carboxamido)-2-phenylacetamido)-2-hydroxy-3,4-dihydro-2H-benzo[e][1,2]oxaborinine-8-carboxylic acid] |  | > 64 | > 64
21 | NCCN1CCN(C(=O)NC(C(=O)N[C@H]2Cc3cccc(C(=O)O)c3OB2O)c2c(F)cc(O)cc2Cl)C(=O)C1=O (stereo partly drawn) [Example 94, (3R)-3-(2-(4-(2-aminoethyl)-2,3-dioxopiperazine-1-carboxamido)-2-(2-chloro-6-fluoro-4-hydroxyphenyl)acetamido)-2-hydroxy-3,4-dihydro-2H-benzo[e][1,2]oxaborinine-8-carboxylic acid] |  | > 64 | > 64

From patent US20230114728A1 (Venatorx Pharmaceuticals, Inc., priority 2019, published 2023)
